The source of these data is patent publication US20250367225A1 (priority 2022, published 2025).

“Also recorded” adds a separate entry of the source. Like-named read-outs stand apart in the source and are kept apart here.

For series [1], the system named is ic-SARS-COV-2-mNeon infection in Huh7 cells. The series is classed as cell-based, human. Conditions: for inhibition of ic-SARS-COV-2-mNeon infection by supernatant of stimulated human iNKT cells: 1 μg/mL lipid, iNKT + HeLa-hCD1d 24 h, supernatant on Huh7 cells.
For a further series, the system named is IFNγ. The series is classed as in vivo, BALB/c mice. Conditions: 2 μg IN; 24 h; nasal turbinate and lung homogenate supernatants, sera.
The subject of the next series is cytokines/chemokines. The experiment in a line: Cytokine/chemokine 31-Plex profile after intranasal administration. Conditions: 2 μg IN; one day after; BAL, nasal turbinate and lung homogenates, sera. The series is classed as in vivo, BALB/c mice.
A further series deals with human iNKT cells. Particulars: human iNKT cells in vitro; cited from earlier work.
A further series has as its system human RSV A2 strain. Format: in vivo, BALB/c mice. Conditions: 2 μg IN 2 days prior, 600,000 pfu RSV A2.
A short description of series [2]: Toxicity noted in mice in the current study. The series is classed as in vivo. From the text: (§1) Without being bound by theory, 7DW8-5 can be an agent for pre-exposure prophylaxis to prevent infections by SARS-COV-2, RSV, influenza virus, and possibly other clinically important respiratory viruses. It is a chemical compound that is thermostable and thus simple to ship and store, cheap to manufacture, and easy to administer intranasally. It is expected that 7DW8-5 is similarly effective in people. […] Second, iNKT cells constitute up to 1% of peripheral blood mononuclear cells in both humans and mice^38,39, although the variability is greater among humans^38.

For series [3], the system named is influenza A virus (H1N1) PR/8/34 (PR8) strain. Kind of series: Influenza A PR8 challenge of C57BL/6 mice. Format: in vivo.
Another series relates to lung mononuclear cells. The experiment in a line: Single-cell gene-expression analysis of lung mononuclear cells. The series is classed as in vivo, BALB/c mice. Conditions: 2 μg IN; 24 h; lung CD45+ cells.
Series [4] in a line: Toxicity noted in hamsters in the current study. Format: in vivo.
Excerpt: as §1

For series [5], the system named is splenocytes. Kind of series: IFN-γ-secreting splenocytes in response to glycolipids in culture (mouse). Format: cell-based. An excerpt:
(§2) FIGS. 12A-B show relative number of IFN-γ-secreting splenocytes in hamster versus mouse in response to glycolipids in culture.
(§3) The relative number of IFN-γ-secreting splenocytes in hamster versus mouse in response to glycolipids in culture are shown in FIGS. 12A-B. 7DW8-5 administration affects IFN-γ-secreting splenocyte numbers in hamsters as shown in FIG. 12A. Cytokine induction

Series [6] relates to splenocytes. The experiment in a line: IFN-γ-secreting splenocytes in response to glycolipids in culture (hamster). The series is classed as cell-based.
Excerpt: as §2, §3

The nature of the next series: Thermostability (stated). Format: physicochemical. Conditions: stated in discussion, no test described.
The next series deals with mouse iNKT cells. Particulars: mouse iNKT cells in vitro; cited from earlier work.
In another series the test system is SARS-COV-2 (USA/WA1). Kind of series: Direct antiviral effect against SARS-COV-2 in Vero E6 cells (CPE). Format: cell-based. Conditions: Vero E6, MOI 0.1, 70 h. The method, then: After 30 min, SARS-COV-2 (USA/WA1) was added to each well to final MOI 0.1. Cells were incubated at 37 °C/5% CO2 for 70 h prior to scoring CPE. Percent inhibition was calculated from fold reduction in CPE over control wells receiving no drug. Remdesivir (RDV) was used as a positive control for the assay. Phosphatidylethanolamine (PE) and Biotin-phosphatidylethanolamine (B-PE) were used as a negative control. […] C57BL/6 mice (N=10) were given 2 μg of 7DW8-5 or saline by IN route 2 days before intranasal challenge with 5,000 pfu (lethal dose) of the PR8 strain. Kaplan-Meier Survival curve was plotted.

The conditions of series [7]: up to 100 μg intramuscularly; cited from earlier work.
For series [8] the following is noted: 6 IV doses of 0.12 mg/kg, cancer patients; cited from earlier work.

Turning to `CCCCCCCC/C=C\CCCCCCCC(=O)OC[C@H](COP(=O)(O)OCCNC(=O)CCCCCN)OC(=O)CCCCCCC/C=C\CCCCCCCC` [1,2-dioleoyl-sn-glycero-3-phosphoethanolamine-N-(hexanoylamine), reference compound], the “inhibition of ic-SARS-COV-2-mNeon infection by supernatant of stimulated human iNKT cells” value in series [1] is “not”.
Consider `CCCCCCCCCCCCCC[C@@H](O)[C@@H](O)[C@H](CO[C@H]1O[C@H](CO)[C@H](O)[C@H](O)[C@H]1O)NC(=O)CCCCCCCCCCc1ccc(F)cc1` [7DW8-5], for which the “IFN-γ induction by ELISA” value in the series with IFNγ is recorded as “No evidence of IFN-γ induction; also recorded: minimal level”. Besides, the “cytokines/chemokines incl. IFN-γ, IL-5, IL-6, IP-10, TNF-α, MCP1, MIG” value in the series with cytokines/chemokines is “Marked upregulation”. Further, the immunostimulatory activity result with human iNKT cells is listed as “potent stimulatory effect”. Besides, the “inhibition of ic-SARS-COV-2-mNeon infection by supernatant of stimulated human iNKT cells” value in [1] is reported as “display anti-viral activity; also recorded: significantly inhibit”. Further, in [1] (anti-human IFN-γ antibody 1 μg/mL), the “inhibition by supernatant with neutralizing anti-human IFN-γ Ab added” value is “inhibited; also recorded: completely abolished”. Besides, the body weight result with human RSV A2 strain is recorded as “significantly prevented weight loss”; in series [3] (2 μg IN 2 days prior, 5,000 pfu PR8, day 3) it was “significantly maintained body weight”. In the series on human RSV A2 strain (day 4, TCID50 in Hep2 cells), the “virus replication in lung tissues” value was “inhibited virus replication; also recorded: decreased”. In addition, the toxicity entry in series [2] and in [4] was “lack of toxicity” throughout. The body weight loss entry in [3] (2 μg IN one day before 200 pfu PR8, day 3 (FIG. 7)) is recorded as “lack of body weight loss”; in series [3] (2 μg IN, 5000 pfu PR8, monitored every day after challenge (FIG. 8C)), “ameliorated”. Further, the survival in series [3] (2 μg IN, lethal dose 5×10^3 PFU PR8, all control mice died by Day 10) is 8 of 10 and higher probability of survival. The “IFN-γ production in proliferative NK cells, T cells, iNKT cells (single-cell analysis)” value with lung mononuclear cells is reported as “apparent shift toward IFN-γ production”. Besides, the IFN-γ-secreting splenocytes result in the series with splenocytes [5] is reported as “increases”. Moreover, in the series with splenocytes [6], the IFN-γ-secreting splenocyte numbers entry is recorded as “affects”. For the same compound, the thermostability entry in “Thermostability (stated)” is “thermostable”. For the same compound, in the series with mouse iNKT cells, the “immunostimulatory activity compared with α-GalCer” value is “even more potent immunostimulatory activity”. Besides, the “direct antiviral activity against SARS-COV-2 in vitro” value in the series with SARS-COV-2 (USA/WA1) is “no direct antiviral activity; also recorded: lack of a direct antiviral effect”. For the same compound, the adverse reactions result in [7] was “did not lead to any adverse reactions”.
Turning to `CCCCCCCCCCCCCCCCCCCCCCCCCC(=O)NC(CO[C@H]1O[C@H](CO)[C@H](O)[C@H](O)[C@H]1O)[C@H](O)[C@H](O)CCCCCCCCCCCCCC` (stereo partly drawn) [α-GalCer, N-[(3S,4R)-3,4-dihydroxy-1-[(2S,3R,4S,5R,6R)-3,4,5-trihydroxy-6-(hydroxymethyl)oxan-2-yl]oxyoctadecan-2-yl]hexacosanamide], in series [8], the toxicity result was “without evidence of toxicity”.
